From PMC7316994, “In Vitro Pharmacological Profile of a New Small Molecule Bradykinin B2 Receptor Antagonist” (Frontiers in Pharmacology, 2020)

Experiments:
[1] = test system: Glutamate ionotropic, NMDA; assay: radioligand binding (Table S2); conditions: [3H] CGP 39653, Rat cerebral cortex
[2] = target: T1, Vasopressin V1a (Homo sapiens, UniProt P37288); assay: radioligand binding (Table S2); conditions: [3H] AVP, Human recombinant CHO cells
T1 construct: host or cells: CHO cells

[3] = target: T2, Oxytocin (Homo sapiens, UniProt P30559); assay: radioligand binding (Table S2); conditions: [3H] Oxytocin, Human recombinant Chem-1 cells
T2 construct: host or cells: Chem-1 cells

[4] = target: T3, Histamine H1 (Homo sapiens, UniProt P35367); assay: radioligand binding (Table S2); conditions: [3H] Pyrilamine, Human recombinant HEK-293 cells
T3 construct: host or cells: HEK-293 cells

[5] = target: Neurotensin NT1 (Homo sapiens, UniProt P30989); assay: radioligand binding (Table S2); conditions: [125I] Neurotensin, Human recombinant HEK-293 cells
[6] = target: T4, Bombesin BB1 (Homo sapiens, UniProt P28336); assay: functional assay, intracellular [Ca2+], CHO cells (Table S2); assay type: cell-based
T4 construct: host or cells: CHO cells
T4 sequence (P28336 whole entry): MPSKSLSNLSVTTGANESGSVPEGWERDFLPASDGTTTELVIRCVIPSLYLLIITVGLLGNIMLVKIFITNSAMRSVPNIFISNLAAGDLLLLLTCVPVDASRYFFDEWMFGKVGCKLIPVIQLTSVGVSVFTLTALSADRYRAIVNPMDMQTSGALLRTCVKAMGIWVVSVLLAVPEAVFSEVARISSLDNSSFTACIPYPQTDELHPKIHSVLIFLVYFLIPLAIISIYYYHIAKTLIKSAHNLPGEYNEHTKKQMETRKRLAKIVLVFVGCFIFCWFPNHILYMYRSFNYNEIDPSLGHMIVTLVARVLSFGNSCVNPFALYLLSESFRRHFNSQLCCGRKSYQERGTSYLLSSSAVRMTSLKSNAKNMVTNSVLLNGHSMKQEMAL

[7] = target: T5, Dopamine D4.2 (Homo sapiens, UniProt P21917, DEL265-296); assay: radioligand binding (Table S2); conditions: [3H] Spiperone, Human recombinant CHO-K1 cells
T5 construct: host or cells: CHO-K1 cells
T5 sequence (P21917 with tags, fused parts or gaps DEL265-296): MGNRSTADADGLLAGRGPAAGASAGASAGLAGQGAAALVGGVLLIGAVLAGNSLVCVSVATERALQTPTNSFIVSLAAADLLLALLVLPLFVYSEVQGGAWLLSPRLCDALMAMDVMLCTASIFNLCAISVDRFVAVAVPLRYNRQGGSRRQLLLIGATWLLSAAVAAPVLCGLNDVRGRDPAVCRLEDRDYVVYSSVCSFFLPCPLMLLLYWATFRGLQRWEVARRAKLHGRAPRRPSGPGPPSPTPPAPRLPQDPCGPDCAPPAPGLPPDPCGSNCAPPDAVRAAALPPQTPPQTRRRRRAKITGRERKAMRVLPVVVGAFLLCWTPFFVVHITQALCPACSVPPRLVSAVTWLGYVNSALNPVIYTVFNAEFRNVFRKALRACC

[8] = test system: Sodium Na+ channel (site 2); assay type: binding; conditions: [3H] Batrachotoxinin, Rat cerebral cortex
[9] = target: T6, Serotonin 5-HT transporter (Homo sapiens, UniProt P31645); assay: radioligand binding (Table S2); conditions: [3H] Imipramine, Human recombinant CHO cells
T6 construct: host or cells: CHO cells
T6 sequence (P31645 whole entry): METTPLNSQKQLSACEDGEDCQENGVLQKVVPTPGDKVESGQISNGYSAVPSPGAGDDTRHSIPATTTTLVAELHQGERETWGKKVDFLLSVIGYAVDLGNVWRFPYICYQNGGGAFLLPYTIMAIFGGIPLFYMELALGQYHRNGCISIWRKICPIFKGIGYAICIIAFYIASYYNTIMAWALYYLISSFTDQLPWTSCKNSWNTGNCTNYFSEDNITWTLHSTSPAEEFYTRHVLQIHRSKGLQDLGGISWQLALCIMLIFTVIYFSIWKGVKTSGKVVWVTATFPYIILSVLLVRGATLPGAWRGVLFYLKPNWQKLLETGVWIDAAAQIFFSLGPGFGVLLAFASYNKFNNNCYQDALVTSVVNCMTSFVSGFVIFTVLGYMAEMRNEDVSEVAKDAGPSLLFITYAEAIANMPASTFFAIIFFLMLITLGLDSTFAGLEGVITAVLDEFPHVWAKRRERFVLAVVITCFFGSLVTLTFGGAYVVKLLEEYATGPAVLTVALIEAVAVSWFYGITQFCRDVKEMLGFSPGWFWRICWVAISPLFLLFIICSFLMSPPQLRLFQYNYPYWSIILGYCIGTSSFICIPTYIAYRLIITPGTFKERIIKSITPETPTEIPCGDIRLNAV

[10] = target: T7, Melanocortin MC3 (Homo sapiens, UniProt P41968); assay: radioligand binding (Table S2); conditions: [125I] NDP-α-MSH, Human recombinant CHO cells
T7 construct: host or cells: CHO cells
T7 sequence (P41968 whole entry): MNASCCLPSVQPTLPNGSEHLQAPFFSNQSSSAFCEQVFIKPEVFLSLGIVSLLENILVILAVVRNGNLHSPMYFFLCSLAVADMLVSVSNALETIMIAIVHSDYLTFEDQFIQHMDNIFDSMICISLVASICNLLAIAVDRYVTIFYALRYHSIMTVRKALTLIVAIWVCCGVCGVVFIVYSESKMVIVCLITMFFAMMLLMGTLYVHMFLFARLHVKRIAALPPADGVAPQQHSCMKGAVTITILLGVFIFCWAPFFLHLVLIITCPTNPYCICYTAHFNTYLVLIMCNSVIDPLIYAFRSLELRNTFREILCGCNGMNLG

[11] = target: T8, COX2 (Homo sapiens, UniProt P35354); assay: enzyme assay (Table S2); assay type: biochemical; conditions: Arachidonic acid (2 µM) + ADHP, Fluorimetry
T8 construct: Eurofins (assay provider); host or cells: Sf9 cells
T8 sequence (P35354 18-604): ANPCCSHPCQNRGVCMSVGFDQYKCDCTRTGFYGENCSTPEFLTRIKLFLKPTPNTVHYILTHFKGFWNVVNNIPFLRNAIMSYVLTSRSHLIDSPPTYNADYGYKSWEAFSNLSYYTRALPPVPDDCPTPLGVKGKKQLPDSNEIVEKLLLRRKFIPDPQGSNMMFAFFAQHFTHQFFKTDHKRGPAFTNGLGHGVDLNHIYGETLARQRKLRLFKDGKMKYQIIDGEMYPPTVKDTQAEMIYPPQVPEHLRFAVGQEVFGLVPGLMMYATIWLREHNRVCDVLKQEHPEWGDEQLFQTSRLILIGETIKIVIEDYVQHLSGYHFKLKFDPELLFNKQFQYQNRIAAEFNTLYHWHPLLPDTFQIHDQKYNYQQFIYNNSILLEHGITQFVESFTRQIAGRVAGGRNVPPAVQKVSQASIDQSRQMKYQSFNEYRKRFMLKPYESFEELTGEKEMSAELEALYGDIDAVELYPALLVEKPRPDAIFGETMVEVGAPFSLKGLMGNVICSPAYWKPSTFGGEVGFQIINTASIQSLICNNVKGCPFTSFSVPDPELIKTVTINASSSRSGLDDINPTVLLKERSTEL

[12] = target: T9, Adenosine A3 (Homo sapiens, UniProt P0DMS8); assay: functional assay, cAMP HTRF, CHO cells (Table S2); assay type: cell-based; design: host or cells: CHO cells
T9 sequence (P0DMS8 1-318): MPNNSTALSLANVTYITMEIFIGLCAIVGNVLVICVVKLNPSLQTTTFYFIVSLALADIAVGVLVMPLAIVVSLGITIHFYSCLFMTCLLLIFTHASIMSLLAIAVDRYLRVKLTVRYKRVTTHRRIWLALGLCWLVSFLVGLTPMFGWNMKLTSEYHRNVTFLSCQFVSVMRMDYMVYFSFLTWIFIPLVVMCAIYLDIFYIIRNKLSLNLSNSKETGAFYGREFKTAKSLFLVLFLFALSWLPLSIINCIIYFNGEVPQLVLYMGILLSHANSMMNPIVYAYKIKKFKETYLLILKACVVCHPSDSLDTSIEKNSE

[13] = target: T10, Leukotriene B4 receptor BLT1 (Homo sapiens, UniProt Q15722); assay: radioligand binding (Table S2); conditions: [3H] LTB4, Human recombinant CHO cells
T10 construct: host or cells: CHO cells
T10 sequence (Q15722 whole entry): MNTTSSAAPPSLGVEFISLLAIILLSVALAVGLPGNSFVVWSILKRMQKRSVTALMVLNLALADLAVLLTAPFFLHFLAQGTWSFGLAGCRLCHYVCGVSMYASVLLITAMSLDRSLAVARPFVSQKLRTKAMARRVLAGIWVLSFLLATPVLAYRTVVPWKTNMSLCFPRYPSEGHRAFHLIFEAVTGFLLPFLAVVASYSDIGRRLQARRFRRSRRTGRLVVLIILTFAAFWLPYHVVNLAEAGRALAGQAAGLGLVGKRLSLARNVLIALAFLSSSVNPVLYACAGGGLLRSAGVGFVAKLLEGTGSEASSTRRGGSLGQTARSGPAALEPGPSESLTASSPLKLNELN

[14] = target: Angiotensine AT1 (Homo sapiens, UniProt P30556); assay: radioligand binding (Table S2); conditions: read-out: % Inhibition @ 10 µM
[15] = target: Chemokine CXCR2 (IL-8RB) (Homo sapiens, UniProt P25025); assay: radioligand binding (Table S2); conditions: [125I] IL-8, Human recombinant CHO-K1 cells
Sequence of Chemokine CXCR2 (IL-8RB) (P25025 whole entry): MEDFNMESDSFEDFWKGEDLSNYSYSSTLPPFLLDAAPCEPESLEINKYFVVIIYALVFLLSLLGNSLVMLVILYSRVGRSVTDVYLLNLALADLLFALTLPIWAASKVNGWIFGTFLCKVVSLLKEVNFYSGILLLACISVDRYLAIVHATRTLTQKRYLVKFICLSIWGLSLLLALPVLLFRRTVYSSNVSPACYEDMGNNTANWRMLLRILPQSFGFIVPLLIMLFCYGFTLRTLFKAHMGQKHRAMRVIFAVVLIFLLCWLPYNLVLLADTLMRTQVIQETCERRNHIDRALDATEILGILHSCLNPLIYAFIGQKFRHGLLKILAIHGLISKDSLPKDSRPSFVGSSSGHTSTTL

[16] = target: T11, Galanin GAL2 (Homo sapiens, UniProt O43603); assay: radioligand binding (Table S2); conditions: [125I] Galanin, Human recombinant CHO cells
T11 construct: host or cells: CHO cells
T11 sequence (O43603 whole entry): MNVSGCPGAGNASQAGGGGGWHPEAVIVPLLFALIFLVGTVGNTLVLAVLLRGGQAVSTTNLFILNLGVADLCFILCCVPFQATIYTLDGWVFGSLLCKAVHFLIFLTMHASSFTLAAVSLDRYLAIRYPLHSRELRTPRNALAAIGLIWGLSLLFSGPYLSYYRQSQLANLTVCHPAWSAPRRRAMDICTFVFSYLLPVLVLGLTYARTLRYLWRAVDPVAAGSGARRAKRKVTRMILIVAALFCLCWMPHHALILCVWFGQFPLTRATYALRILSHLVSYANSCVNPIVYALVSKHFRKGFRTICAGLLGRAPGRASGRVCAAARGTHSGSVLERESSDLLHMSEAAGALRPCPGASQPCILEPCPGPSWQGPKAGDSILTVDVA

[17] = target: T12, PDGFRβ kinase (Homo sapiens, UniProt P09619); assay: enzyme assay (Table S2); assay type: biochemical; conditions: ATP + Ulight-PolyGAT (25 nM), LANCE
T12 construct: host or cells: insect cells

[18] = test system: Thyroid hormone; assay: radioligand binding (Table S2); conditions: [125I] Triiodothyronine, Rat liver
[19] = target: Muscarinic M5 (Homo sapiens, UniProt P08912); assay: radioligand binding (Table S2); conditions: read-out: % Inhibition @ 10 µM
[20] = target: Cannabinoid CB2 (Homo sapiens, UniProt P34972); assay: radioligand binding (Table S2); conditions: read-out: % Inhibition @ 10 µM
Sequence of Cannabinoid CB2 (P34972 whole entry): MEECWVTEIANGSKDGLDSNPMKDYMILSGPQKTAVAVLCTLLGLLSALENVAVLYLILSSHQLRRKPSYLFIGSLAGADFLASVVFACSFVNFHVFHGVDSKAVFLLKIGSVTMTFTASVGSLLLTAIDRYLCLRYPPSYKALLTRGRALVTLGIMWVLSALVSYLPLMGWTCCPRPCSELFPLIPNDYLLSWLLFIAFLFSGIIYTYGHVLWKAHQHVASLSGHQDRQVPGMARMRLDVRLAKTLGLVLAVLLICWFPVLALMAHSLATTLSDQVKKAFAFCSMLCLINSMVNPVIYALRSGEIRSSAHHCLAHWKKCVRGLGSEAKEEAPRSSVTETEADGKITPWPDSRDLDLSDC

[21] = target: T13, kinin B1 receptor (Homo sapiens, UniProt P46663); assay: umbilical vein, Sar-[D-Phe^8]des-Arg^9-BK-induced contraction; conditions: 1 μM
T13 construct: during the 3-hour incubation period to upregulate the expression of B1; from tissue; host or cells: human umbilical vein rings pre-incubated with interleukin-1β and tumor necrosis factor-α
T13 sequence (P46663 whole entry): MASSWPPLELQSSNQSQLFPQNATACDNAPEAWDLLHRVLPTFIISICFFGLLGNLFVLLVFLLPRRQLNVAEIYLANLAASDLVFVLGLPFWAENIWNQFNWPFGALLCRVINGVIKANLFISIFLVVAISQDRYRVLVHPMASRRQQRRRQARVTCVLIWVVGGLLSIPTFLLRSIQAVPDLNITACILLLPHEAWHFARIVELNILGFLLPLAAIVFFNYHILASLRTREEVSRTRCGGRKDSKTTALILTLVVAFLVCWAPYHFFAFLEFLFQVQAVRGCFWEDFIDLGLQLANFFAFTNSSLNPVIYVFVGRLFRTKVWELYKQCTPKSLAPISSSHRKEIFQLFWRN

[22] = target: T14, Cysteinyl leukotriene receptor CysLT2 (Homo sapiens, UniProt Q9NS75); assay: radioligand binding (Table S2); conditions: [3H] LTD4, Human recombinant HEK-293 cells
T14 construct: host or cells: HEK-293 cells
T14 sequence (Q9NS75 whole entry): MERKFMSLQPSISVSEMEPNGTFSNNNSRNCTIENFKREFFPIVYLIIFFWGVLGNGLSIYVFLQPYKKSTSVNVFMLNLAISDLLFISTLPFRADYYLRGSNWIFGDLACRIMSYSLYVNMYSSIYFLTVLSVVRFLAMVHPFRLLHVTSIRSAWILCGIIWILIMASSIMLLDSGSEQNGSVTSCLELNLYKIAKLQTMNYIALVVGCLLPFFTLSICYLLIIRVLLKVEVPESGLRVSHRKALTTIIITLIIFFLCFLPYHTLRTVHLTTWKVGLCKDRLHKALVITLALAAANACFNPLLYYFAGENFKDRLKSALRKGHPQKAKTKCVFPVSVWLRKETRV

[23] = target: T15, endogenous human B2 receptor (Homo sapiens, UniProt P30411); assay: human isolated umbilical vein contractility assay, BK-induced contraction
T15 construct: BK-induced contraction at endogenous human B2 receptor in the umbilical vein model; from tissue; host or cells: human umbilical vein rings (donor cords after elective caesarean section)
T15 sequence (P30411 1-391): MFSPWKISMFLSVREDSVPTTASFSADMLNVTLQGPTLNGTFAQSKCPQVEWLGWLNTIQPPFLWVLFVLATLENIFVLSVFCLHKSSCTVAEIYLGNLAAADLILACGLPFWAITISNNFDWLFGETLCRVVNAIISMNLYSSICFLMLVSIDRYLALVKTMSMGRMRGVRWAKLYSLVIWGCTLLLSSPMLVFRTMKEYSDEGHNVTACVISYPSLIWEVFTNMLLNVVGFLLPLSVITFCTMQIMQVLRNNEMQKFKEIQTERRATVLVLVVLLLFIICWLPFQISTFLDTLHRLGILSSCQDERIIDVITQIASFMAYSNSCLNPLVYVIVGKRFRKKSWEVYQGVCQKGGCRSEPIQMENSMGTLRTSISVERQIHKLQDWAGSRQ

T1 sequence (P37288 whole entry): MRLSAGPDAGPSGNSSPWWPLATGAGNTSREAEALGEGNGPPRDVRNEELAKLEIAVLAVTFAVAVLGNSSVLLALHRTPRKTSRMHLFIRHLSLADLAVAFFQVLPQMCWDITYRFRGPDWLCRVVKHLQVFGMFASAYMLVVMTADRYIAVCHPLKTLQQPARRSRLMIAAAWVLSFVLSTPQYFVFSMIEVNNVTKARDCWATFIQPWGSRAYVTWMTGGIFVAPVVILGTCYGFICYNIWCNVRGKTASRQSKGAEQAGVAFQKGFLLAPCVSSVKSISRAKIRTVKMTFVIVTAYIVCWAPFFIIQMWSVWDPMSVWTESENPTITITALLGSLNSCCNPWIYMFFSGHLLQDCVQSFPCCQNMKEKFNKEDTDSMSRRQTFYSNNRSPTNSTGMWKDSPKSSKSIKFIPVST

Structure (SMILES): Cc1cc(-c2ncnn2C)c2cccc(OCc3c(Cl)cc(F)cc3[C@H](C)NC(=O)COC(F)F)c2n1 [Compound 3, (S)-N-(1-(3-chloro-5-fluoro-2-((2-methyl-4-(1-methyl-1H-1,2,4-triazol-5-yl)quinolin-8-yloxy)methyl)phenyl)ethyl)-2-(difluoromethoxy)acetamide]
- % Inhibition @ 10 µM [1]: 5.1%
- % Inhibition @ 10 µM [2]: 84%
- inhibition at 10 µM [2]: 84.1%
- inhibition at 10 µM [3]: 5%
- inhibition at 10 µM [4]: 2.5%
- inhibition at 10 µM [5]: 4%
- inhibition at 10 µM ([6]; CHO, read-out: % inhibition of reference agonist response @ 10 µM (antagonist effect), Neuromedin B (0.1 nM)): 28.5%
- % of reference agonist response @ 10 µM (agonist effect) ([6]; reference neuromedin B (10 nM)): 4.4%
- inhibition at 10 µM [7]: 2%
- % Inhibition @ 10 µM [8]: -3.4%
- inhibition at 10 µM [9]: -23.4%
- inhibition at 10 µM [10]: -8.2%
- inhibition at 10 µM [11]: -18.8%
- inhibition at 10 µM ([12]; CHO, read-out: % inhibition of reference agonist response @ 10 µM (antagonist effect), IB-MECA (10 nM)): 8.5%
- % of reference agonist response @ 10 µM (agonist effect) ([12]; reference IB-MECA (100 nM)): 10.5%
- inhibition at 10 µM [13]: 16.7%
- inhibition at 10 µM [14]: -4.1%
- inhibition at 10 µM [15]: 17%
- inhibition at 10 µM [16]: 6.2%
- inhibition at 10 µM [17]: -1%
- % Inhibition @ 10 µM [18]: 6.4%
- inhibition at 10 µM [19]: 5.1%
- inhibition at 10 µM [20]: -17.7%
- effect on contraction by B1 receptor agonist Sar-[D-Phe^8]des-Arg^9-BK [21]: failed to antagonize
- inhibition at 10 µM [22]: -6%
- Kb [23]: 0.214 nM
- type of antagonism of BK ([23]; BK concentration-effect curves, Emax): competitive
- pA2 ([23]; Schild plot, Pharm/PCS, ± S.E.M. where given): 9.67 ± 0.42
- Schild plot slope ([23]; Schild regression, Pharm/PCS, ± S.E.M. where given): −0.76
- Maximal BK-induced response in absolute force units ± S.E.M. ([23]; antagonist 1 nM, vehicle for Compound 3 1.52 ± 0.20): 1.75 ± 0.32 grams-weight
- Maximal BK-induced response in absolute force units ± S.E.M. ([23]; antagonist 10 nM, vehicle: Icatibant 1.90, Compound 1 […], Compound 2 2.25, Compound 3 1.52): 2.29 ± 0.24 grams-weight
- Maximal BK-induced response in absolute force units ± S.E.M. ([23]; antagonist 100 nM, vehicle: Icatibant 1.90, Compound 1 […], Compound 2 2.25, Compound 3 1.52): 2.42 ± 0.36 grams-weight
- Maximal BK-induced response in absolute force units ± S.E.M. ([23]; antagonist 1 μM, vehicle: Icatibant 1.90, Compound 1 […], Compound 2 2.25, Compound 3 1.52): 1.25 ± 0.14 grams-weight
- pA2 value converted into nM ([23]; potency from pA2): 0.21 nM
